Measurements reported in US8183281B2, “CXC-chemokine receptor ligands” (Novartis AG, priority 2007, dated 2012).

Target: T1, Human CXCR2 Receptor (Homo sapiens, UniProt P25025)
T1 construct: purchased Biosignal Packard Inc; host or cells: Chinese hamster ovary cells (CHO-K1), membranes
T1 sequence (P25025 1-360): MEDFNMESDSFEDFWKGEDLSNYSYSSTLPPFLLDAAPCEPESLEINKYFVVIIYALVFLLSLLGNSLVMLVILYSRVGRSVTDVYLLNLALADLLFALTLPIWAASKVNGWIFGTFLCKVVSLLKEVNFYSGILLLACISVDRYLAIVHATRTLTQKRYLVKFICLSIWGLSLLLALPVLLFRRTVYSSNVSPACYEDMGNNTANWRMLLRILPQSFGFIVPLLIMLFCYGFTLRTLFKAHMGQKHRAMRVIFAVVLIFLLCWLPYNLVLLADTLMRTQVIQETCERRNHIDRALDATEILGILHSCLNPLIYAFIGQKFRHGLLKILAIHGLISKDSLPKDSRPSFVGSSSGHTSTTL
Assay: [35S]-GTPγS binding assay for human CXCR2 receptor using SPA technology
Format: biochemical
Details: CHO-K1 membranes expressing human CXCR2; 100 nM IL-8 stimulated; read-out: IC50 values in the [35S]-GPTγS binding assay
Description: [^35S]-GTPγS Binding Assay for Human CXCR2 Receptor Using SPA Technology
[^35S]-GTPγS (with specific activity 1082 Ci/mmol) and wheat germ agglutinin poly vinyl toluene scintillation proximity beads are purchased from Amersham Pharmacia Biotech. The Chinese hamster ovary cell (CHO-K1) membranes expressing human CXCR2 receptors are purchased from Biosignal Packard Inc. All other chemicals are of analytical grade. White non-binding surface 96 well Optiplate™ microplates are obtained from Packard. Recombinant human IL-8 is synthesised, cloned and expressed in Escherichia coli as described previously (Lindley I, et al., Proc. Natl. Acad. Sci., 1988, 85(23):9199). The assay is performed in duplicate in 96 well Optiplate™ microplate in a final volume of 250 μl per well. Compounds are diluted in DMSO (0.5% final concentration) and incubated in 20 mM HEPES buffer pH 7.4 containing 10 mM MgCl2, 100 mM NaCl, 1 mM EDTA plus 100 nM IL-8, 50 μM GDP and […] [^35S]GTPγS per well. SPA beads (1 mg/well final concentration) were pre-mixed with the membranes (10 μg/well final concentration) in assay buffer: 20 mM HEPES buffer pH 7.4 containing 10 mM MgCl2, 100 mM NaCl, 1 mM EDTA. […] The plate is centrifuged and read on Packard TopCoun™ scintillation counter, program [^35S dpm] for 1 min/well. Data are expressed as the % response to 100 nM IL-8 minus basal.

| IC50 [nM] | Compound |
| --- | --- |
| 58 | CC[C@@H](Nc1c(Nc2ccc(Cl)c(S(=O)(=O)N3CCCC3)c2O)c(=O)c1=O)[C@H]1CC[C@@H](C)O1 [Example 17, 3-[4-Chloro-2-hydroxy-3-(pyrrolidine-1-sulfonyl)-phenylamino]-4-[(R)-1-((2R,5R)-5-methyl-tetrahydrofuran-2-yl)-propylamino]-cyclobut-3-ene-1,2-dione] |
| 22 | O=c1c(Nc2ccc(Cl)c(S(=O)(=O)N3CCOCC3)c2O)c(NC2CCSC2)c1=O (centres unmarked) [Example 7, 3-[4-Chloro-2-hydroxy-3-(morpholine-4-sulfonyl)-phenylamino]-4-(tetra-hydro-thiophen-3-ylamino)-cyclobut-3-ene-1,2-dione] |
